In patent US8242274B2, “Triazolopyridine kinase inhibitors useful for the treatment of degenerative and inflammatory diseases” (Galapagos NV, priority 2008, dated 2012):

How the values were obtained:
[1] = Microsomal stability, human; assay type: in vitro ADME; conditions: human liver microsomes, 3 μM compound, 37° C.
Protocol: (§1) A 10 mM stock solution of compound in DMSO was diluted 1000 fold in a 182 mM phosphate buffer pH 7.4 in a 96 deep well plate (Greiner, Cat no. 780285) and pre-incubated at 37° C.
(§2) 40 μL of deionised water was added to a well of a polypropylene Matrix 2D barcode labelled storage tube (Thermo Scientific) and pre-incubated at 37° C.
(§3) A Glucose-6-phosphate-dehydrogenase (G6PDH) working stock solution was prepared in 182 mM phosphate buffer pH7.4 and placed on ice before use. A co-factor containing MgCl2, glucose-6-phosphate and NADP+ was prepared in deionised water and placed on ice before use.
(§4) A final working solution containing liver microsomes (Xenotech) of a species of interest (human, mouse, rat, dog), previously described G6PDH and co-factors was prepared and this mix was incubated for no longer than 20 minutes at room temperature.
(§5) 30 μL of the pre-heated compound dilution was added to 40 μL of pre-heated water in the Matrix tubes and 30 μL of the microsomal mix was added. Final reaction concentrations were 3 μM compound, 1 mg microsomes, 0.4 U/mL GDPDH, 3.3 mM MgCl2, 3.3 mM glucose-6-phosphate and 1.3 mM NADP+.
(§6) To measure percentage remaining of compound at time zero MeOH or ACN was added (1:1) to the well before adding the microsomal mix. The plates were sealed with Matrix Sepra Seals™ (Matrix, Cat. No. 4464) and shaken for a few seconds ensure complete mixing of all components.
(§7) The samples which were not stopped are incubated at 37° C., 300 rpm and after 1 hour of incubation the reaction was stopped with MeOH or ACN (1:1).
(§8) After stopping the reaction the samples were mixed and placed on ice for 30 min to precipitate the proteins. The plates were then centrifuged 30 min at 1200 rcf at 4° C. and the supernatant was transferred to a 96 v-bottom PP plate (Greiner, 651201) for analysis on LCMS.
(§9) These plates were sealed with sealing mats (MA96RD-04S) of www.kinesis.co.uk and samples were measured at room temperature on LCMS (ZQ 1525 from Waters) under optimized conditions using Quanoptimize to determine the appropriate mass of the parent molecule.
(§10) The samples were analyzed on LCMS with a flow rate of 1 mL/min. Solvent A was 15 mM ammonia and solvent B was methanol or acetonitrile, depending on the stop solution used. The samples were run under positive ion spray on an XBridge C18 […] (2.1×30 mm) column, from Waters.
(§11) Peak area from the parent compound at time 0 was considered to be 100% remaining. The percentage remaining after 1 hour incubation was calculated from time 0 and was calculated as the percentage remaining. The solubility of the compound in the final test concentration in buffer is inspected by microscope and results are reported.
(§12) The data on microsomal stability are expressed as a percentage of the total amount of compound remaining after 60 minutes.

[2] = molecular target: T1, Recombinant human JAK2 catalytic domain (Homo sapiens, UniProt O60674); assay: JAK2 inhibition assay; assay type: biochemical; conditions: semi-quantitative score
T1 construct: Recombinant human JAK2 catalytic domain (amino acids 808-1132; catalog number PV4210); purchased Invitrogen PV4210
T1 sequence (O60674 808-1132): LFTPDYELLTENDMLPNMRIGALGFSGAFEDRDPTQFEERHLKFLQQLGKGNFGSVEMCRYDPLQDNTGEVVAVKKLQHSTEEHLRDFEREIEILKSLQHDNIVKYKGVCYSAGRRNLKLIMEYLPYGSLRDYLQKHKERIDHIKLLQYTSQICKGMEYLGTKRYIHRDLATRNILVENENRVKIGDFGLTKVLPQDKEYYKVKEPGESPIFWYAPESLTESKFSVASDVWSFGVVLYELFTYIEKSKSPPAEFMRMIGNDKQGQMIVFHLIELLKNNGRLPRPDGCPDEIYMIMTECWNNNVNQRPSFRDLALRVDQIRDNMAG
Protocol: Recombinant human JAK2 catalytic domain (amino acids 808-1132; catalog number PV4210) was purchased from Invitrogen. 0.025 mU of JAK2 was incubated with 2.5 μg polyGT substrate (Sigma catalog number P0275) in kinase reaction buffer (5 mM MOPS pH 7.5, 9 mM MgAc, 0.3 mM EDTA, 0.06% Brij and 0.6 mM DTT, 1 μM non-radioactive ATP, 0.25 μCi 33P-gamma-ATP (GE Healthcare, catalog number AH9968) final concentrations) with or without 5 μL containing test compound or vehicle (DMSO, 1% final concentration), in a total volume of 25 μL, in a polypropylene 96-well plate (Greiner, V-bottom). After 90 min at 30° C., reactions were stopped by adding of 25 μL/well of 150 mM phosphoric acid. All of the terminated kinase reaction was transferred to prewashed (75 mM phosphoric acid) 96 well filter plates (Perkin Elmer catalog number 6005177) using a cell harvester (Perkin Elmer). Plates were washed 6 times with 300 μL per well of a 75 mM phosphoric acid solution and the bottom of the plates was sealed. 40 μL/well of Microscint-20 was added, the top of the plates was sealed and readout was performed using the Topcount (Perkin Elmer). Kinase activity was calculated by subtracting counts per minute (cpm) obtained in the presence of a positive control inhibitor (10 μM staurosporine) from cpm obtained in the presence of vehicle. The ability of a test compound to inhibit this activity was determined as: Percentage inhibition=((cpm determined for sample with test compound present−cpm determined for sample with positive control inhibitor) divided by (cpm determined in the presence of vehicle−cpm determined for sample with positive control inhibitor))*100%.
Dose dilution series were prepared for the compounds enabling the testing of dose-response effects in the JAK2 assay and the calculation of the IC50 for each compound. Each compound was routinely tested at concentration of 20 μM followed by a 1/3 serial dilution, 8 points (20 μM-6.67 μM-2.22 μM-740 nM-247 nM-82 nM-27 nM-9 nM) in a final concentration of 1% DMSO.

[3] = Microsomal stability, rat; assay type: in vitro ADME; conditions: rat liver microsomes, 3 μM compound, 37° C.
Protocol: as §1, §2, §3, §4, §5, §6, §7, §8, §9, §10, §11, §12

Compound | Microsomal stability Human (%), compound remaining after 60 minutes [1] | IC50 [2] | Microsomal stability Rat (%), compound remaining after 60 minutes [3]
O=C(Nc1nc2cccc(-c3ccc(OCc4ccccc4)cc3)n2n1)C1CC1 [Compound 12, N-(5-(4-(benzyloxy)phenyl)-[1,2,4]triazolo[1,5-a]pyridin-2-yl)cyclopropanecarboxamide] | 70% | 1 to 100 nM | 94%
O=C(Nc1nc2cccc(-c3ccc(OCc4cccnc4)cc3)n2n1)C1CC1 [Compound 36, N-(5-(4-(pyridin-3-ylmethoxy)phenyl)-[1,2,4]triazolo[1,5-a]pyridin-2-yl)cyclopropanecarboxamide] | 11.65% | 1 to 100 nM | 72.41%
O=C(Nc1nc2cccc(-c3ccc(OCc4ccccn4)cc3)n2n1)C1CC1 [Compound 37, N-(5-(4-(pyridin-2-ylmethoxy)phenyl)-[1,2,4]triazolo[1,5-a]pyridin-2-yl)cyclopropanecarboxamide] | 70.98% | 1 to 100 nM | 79.47%
O=C(Nc1nc2cccc(-c3ccc(OCc4ccccc4)nc3)n2n1)C1CC1 [Compound 57, Cyclopropanecarboxylic acid [5-(6-benzyloxy-pyridin-3-yl)-[1,2,4]triazolo[1,5-a]pyridin-2-yl]-amide] | 42.75% | 1 to 100 nM | 34.5%
O=C(Nc1nc2cccc(-c3ccc(NCc4ccccc4)cc3)n2n1)C1CC1 [Compound 72, N-(5-(4-(benzylamino)phenyl)-[1,2,4]triazolo[1,5-a]pyridin-2-yl)cyclopropanecarboxamide] | 4.88% | 1 to 100 nM | 2.2%
O=C(Nc1nc2cccc(-c3ccc(OCc4ccc(C(F)(F)F)nc4)cc3)n2n1)C1CC1 [Compound 78, N-(5-(4-((6-(trifluoromethyl)pyridin-3-yl)methoxy)phenyl)-[1,2,4]triazolo[1,5-a]pyridin-2-yl)cyclopropanecarboxamide] | 78.21% | 1 to 100 nM | 93.85%
CC(=O)Nc1ccc(COc2ccc(-c3cccc4nc(NC(=O)C5CC5)nn34)cc2)cc1 [Compound 92, N-(5-(4-(4-acetamidobenzyloxy)phenyl)-[1,2,4]triazolo[1,5-a]pyridin-2-yl)cyclopropanecarboxamide] | 30.21% | – | 23.6%
N#Cc1ccc(COc2ccc(-c3cccc4nc(NC(=O)C5CC5)nn34)cc2)cn1 [Compound 176, N-(5-(4-((6-cyanopyridin-3-yl)methoxy)phenyl)-[1,2,4]triazolo[1,5-a]pyridin-2-yl)cyclopropanecarboxamide] | 157.1% | 1 to 100 nM | 90.21%
